The values below come from publication PMC8199578, “Anti-Inflammatory, Antiallergic, and COVID-19 Main Protease (M^pro) Inhibitory Activities of Butenolides from a Marine-Derived Fungus Aspergillus terreus” (Molecules, 2021).

Broadly, the IC50 is the concentration that inhibits the measured activity by half. The term viability denotes a read-out of living cells in per cent, often relative to untreated cells. One may read the inhibition as the change of the read-out against control, counted positive when it falls.

Like-named read-outs stand apart in the source and are kept apart here. A value given as a limit tells only on which side of the number the result lay.

In data set [1] the test system is human neutrophils. The data set can be described thus: Elastase release in fMLF/CB-induced human neutrophils. The settings on record: Neutrophil, read-out: Elastase Release in Human Neutrophils IC50. Format: cell-based. As for the experimental part: (§1) The human neutrophils were obtained from venous blood of healthy adult volunteers (20–30 years old) following the reported procedure. Elastase release by the activated neutrophils was determined using elastase substrate (N-methoxysuccinyl-Ala-Ala-Pro-Val-p-nitroanilide) according to the previous methodology. The tested samples’ concentration was 1 to 10 μM and the total incubation time in fMLF/CB-induced cells was 15 min. Genistein was used as the positive control. Cytotoxicity test was performed based on the release of LDH stored in the cytoplasm out of the cells. Briefly, preheated (37 °C, 5 min, 1 mM CaCl2) human neutrophils (6 × 10^5 cells·mL^−1) were incubated with test compounds for 15 min. Total LDH release control was represented as completely lysed cells by 0.1% of Triton X-100 solution incubated with cells for 30 min. The cells were centrifuged at 4 °C for 200× g for 8 min, and LDH reagent was added to supernatant and reacted at room temperature for 30 min in the dark. The absorbance was then measured at 492 nm, and the LDH release was calculated and compared to the total LDH release set as 100%.

The nature of data set [2]: MTT cell viability assay in mast cells. The class given is cell-based. The conditions noted are these: rat. As for the experimental part: (§2) The mucosal mast-cell-derived rat basophilic leukemia cells (RBL-2H3) were purchased from Bioresource Collection and Research Center (Hsin-Chu, Taiwan). The cells were cultured in DMEM containing 10% FBS, 100 U/mL penicillin, and 100 μg/mL streptomycin in 10 cm cell culture dishes at 37 °C in a humidified chamber with 5% CO2 in air. The level of degranulation in RBL-2H3 cells was evaluated using β-hexosaminidase release assay induced by A23187 or antigen as reported before with some modifications. Briefly, the cells were seeded in a 96-well plate (2 × 10^4 cells/well, for the A23187-induced assay) or a 48-well plate (3 × 10^4 cells/well, for the antigen-induced assay) overnight. The cells for the antigen-induced assay were sensitized with anti-DNP IgE (0.5 μg/mL; Sigma) during seeding overnight. RBL-2H3 cells were then treated with the samples (0.5, 5, and 50 μM) for 30 min in Tyrode’s buffer with a maximal DMSO dose of 0.5%. For the A23187-induced assay, the cells were activated by addition of A23187 (final concentration 0.5 μM), while cells for the antigen-induced assay were activated by the addition of DNP-BSA (final concentration 100 ng/mL) for 30 min. Azelastine (10 μM) served as the positive control. The amount of β-hexosaminidase was detected using the method utilizing p-NAG as the substrate according to the procedure described before.
The viability of the RBL-2H3 cells in the presence of the samples (10 and 100 μM) was determined using the methylthiazole tetrazolium (MTT) assay according to a previous method.
(In general: Formazan colour is commonly taken as a measure of viable cells.)

In data set [3] the test system is RBL-2H3 cells. Put plainly: A23187-induced degranulation (β-hexosaminidase release) assay. The class given is cell-based. The settings on record: Rattus norvegicus; for IC50: RBL-2H3, read-out: Inhibition of A23187-Induced Degranulation IC50. As for the experimental part: as §2
Data set [4] deals with RBL-2H3 cells. The data set can be described thus: Antigen (anti-DNP IgE plus DNP-BSA)-induced degranulation (β-hexosaminidase release) assay. Format: cell-based. The settings on record: Rattus norvegicus; for IC50: RBL-2H3, read-out: Inhibition of Antigen-Induced Degranulation IC50. On the procedure:
as §2

Data set [5] deals with T1, human neutrophil elastase (Homo sapiens, UniProt P08246).
T1 construct: followed by fMLF (0.1 μM) for 20 min to release the elastase from the cells; endogenous in cells; host or cells: human neutrophils; degranulation supernatant after CB/fMLF stimulation
T1 sequence (P08246 30-247 limits assumed): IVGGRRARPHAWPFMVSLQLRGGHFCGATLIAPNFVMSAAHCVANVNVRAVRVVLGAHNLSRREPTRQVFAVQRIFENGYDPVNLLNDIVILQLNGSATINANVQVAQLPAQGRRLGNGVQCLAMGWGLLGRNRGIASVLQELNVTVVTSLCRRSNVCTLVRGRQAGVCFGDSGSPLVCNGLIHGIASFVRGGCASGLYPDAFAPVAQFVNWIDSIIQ
Put plainly: Elastase enzymatic activity (cell-free). The class given is biochemical. The conditions noted are these: mean ± S.E.M. (n = 3). As for the experimental part: The compounds were further tested for direct inhibition of elastase enzymatic activity. The neutrophil suspension (6 × 10^5 cells mL^−1) was preheated for 5 min in the presence of CaCl2 (1 mM) at 37 °C. Priming agent CB (1.5 μg mL^−1) was added for 2 min, followed by fMLF (0.1 μM) for 20 min to release the elastase from the cells. After centrifugation at 1000 g for 5 min at 4 °C, the supernatant containing elastase was preheated at 37 °C for 5 min, and the test compounds were added. Then, 0.1 mM of substrate methoxysuccinyl-Ala-Ala-Pro-Val-p-nitroanilide was added for 10 min. The effect of the compounds on elastase enzymatic activity was quantified by measuring the absorbance at 405 nm.

On the set-up of data set [6]: method as in PMID 29763312. The conditions noted are these: via reducing the levels of histamine and mouse mast cell proteinases; cited from earlier work.
Data set [7] can be described thus: Lactate dehydrogenase (LDH) viability assay in human neutrophils. Format: cell-based. The conditions noted are these: human, human neutrophils; 10 μM; based on lactate dehydrogenase release; mean ± S.E.M. (n = 3); read-out: Cell viability, Human Neutrophils. On the procedure: as §1
For data set [8], the system named is human neutrophils. The description is as above. Format: cell-based. The conditions noted are these: cell viability assay based on lactate dehydrogenase release. As for the experimental part:
as §1

The mark [9] stands for this setting: 100 μM, MTT viability assay, compared with untreated control (DMSO), n = 3, read-out: Cell Viability, RBL-2H3.
Where [10] appears, read: RBL-2H3, read-out: Inhibition of A23187-induced degranulation.
Setting [11] is: RBL-2H3, read-out: Inhibition of antigen-induced degranulation.

Consider `O=c1c(-c2ccc(O)cc2)coc2cc(O)cc(O)c12` [Genistein, reference compound], for which the IC50 in the data set on human neutrophils [1] (fMLF/cytochalasin B (CB)-induced human neutrophils, mean ± S.E.M. (n = 3)) worked out at 32.7 µM.
As for `CC(C)=CCc1cc(C=O)ccc1O` [4-hydroxy-3-(3-methylbut-2-enyl)benzaldehyde], the IC50 is greater than 10 µM in the data set on human neutrophils [1] (Homo sapiens), greater than 100 µM in the data set on RBL-2H3 cells [3] and greater than 100 µM in the data set on RBL-2H3 cells [4]. The viability at 100 µM in data set [2] is greater than 90%.
As to `CN1CCCC(n2nc(Cc3ccc(Cl)cc3)c3ccccc3c2=O)CC1` (stereo not drawn) [Azelastine, reference compound], the inhibition at 10 µM in the data set with RBL-2H3 cells [3] (RBL-2H3, 10 μM, mean ± S.E.M. (n = 3), read-out: Inhibition of A23187-induced degranulation) was found to be 34.5%; in the data set with RBL-2H3 cells [4] (RBL-2H3, 10 μM, mean ± S.E.M. (n = 3), read-out: Inhibition of antigen-induced degranulation), 35.5%.
As to `COC(=O)[C@]1(Cc2ccc(O)c(CC=C(C)C)c2)OC(=O)C(O)=C1c1ccc(O)cc1` [Butyrolactone I (1), butyrolactone I], the IC50 in the data set on human neutrophils [1] (Homo sapiens) turned out to be 2.3 ± 0.27 µM; in data set [5], 16.7 ± 2.64 µM; in the data set on RBL-2H3 cells [3] it was 39.7 µM; in the data set on RBL-2H3 cells [4], 41.6 µM. The viability at 100 µM in data set [2] (setting [9]) was greater than 90%. For the same molecule, in data set [6], the “Effect on ovalbumin-induced allergy symptoms” value is reported as “alleviating ovalbumin-induced allergy symptoms”. In addition, the viability at 15 min, 10 µM in data set [7] stood at 94.1 ± 2.31%. The “Toxicity to human neutrophils (in words)” value in the data set with human neutrophils [8] was “non-toxic”. Moreover, the inhibition at 10 µM stood at 26% in the data set on RBL-2H3 cells [3] (setting [10]) and 30% in the data set with RBL-2H3 cells [4] (setting [11]). The inhibition at 100 µM stood at 98.7% with RBL-2H3 cells [3] (setting [10]) and 87% in the data set with RBL-2H3 cells [4] (setting [11]).
`C=C1C[C@]2(O)[C@@]3(C)CCC(=O)C(C)(C)C3=C(O)C(=O)[C@@]2(C)[C@@H]2C(=O)O[C@@](C)(C(=O)OC)C(=O)[C@@]12C` [Terretonin (3), terretonin]: the IC50 was greater than 10 µM with human neutrophils [1] (Homo sapiens), greater than 100 µM in the data set with RBL-2H3 cells [3] and greater than 100 µM in the data set with RBL-2H3 cells [4]. Moreover, the viability at 100 µM in data set [2] (setting [9]) was greater than 90%.
On to `COC(=O)[C@]1(Cc2ccc(O)c(CC3OC3(C)C)c2)OC(=O)C(O)=C1c1ccc(O)cc1` (stereo partly drawn) [Butyrolactone III (2), butyrolactone III], for which the IC50 was greater than 10 µM with human neutrophils [1] (Homo sapiens), greater than 30 µM in data set [5], greater than 100 µM with RBL-2H3 cells [3] and greater than 100 µM in the data set with RBL-2H3 cells [4]. In data set [2] (setting [9]), the viability at 100 µM was greater than 90%. In data set [7], the viability at 15 min, 10 µM stood at 98.2 ± 1.77%. In the data set with human neutrophils [8], the “Toxicity to human neutrophils (in words)” value is listed as “non-toxic”.
